Laboratory results published in PMC7433010, “Exploration of multi‐target effects of 3‐benzoyl‐5‐hydroxychromen‐2‐one in Alzheimer’s disease cell and mouse models” (Aging Cell, 2020).

Assays:
[1] = MTT cytotoxicity in uninduced ∆K280 TauRD‐DsRed 293 cells; type: cell-based; conditions: human
Procedure: (§1) Licochalcone A and five derivative LM compounds were tested (Figure 1a). All six compounds were soluble up to 100 μM in a cell culture medium (Figure S1a). Based on molecular weight (MW), hydrogen bond donors (HBD), hydrogen bond acceptors (HBA), and calculated octanol/water partition coefficient (cLogP), all six compounds meet Lipinski's criteria in predicting oral bioavailability (Lipinski, Lombardo, Dominy, & Feeney, 1997) (Figure S1b). […] To choose the optimal treatment dose used for the best efficacy of the candidate compounds, a specific type of biphasic dose response of a compound called hormesis should take into consideration. Evidence has shown that a wide range of pharmaceutical products display a hermetic dose‐response feature, characterized by a low‐dose stimulation and a high‐dose inhibition (Calabrese et al., 2018; Concetta Scuto et al., 2019; Pilipenko et al., 2019). Therefore, we tested the compounds at a range of doses to find the optimal dose for the best therapeutic effect and the least cytotoxicity. Firstly, MTT assay was performed using uninduced ∆K280 TauRD‐DsRed 293 and retinoic acid‐differentiated SH‐SY5Y cells following treatment with the test compounds (0.1–10 μM) for 3 (for 293 cells) or 7 (for SH‐SY5Ycells) days. […] Congo red is an amyloidogenic dye known to reduce Aβ neurotoxicity (Lorenzo & Yankner, 1994).
(§2) Licochalcone A was purchased from Sigma-Aldrich, St. Louis, MO, USA. In-house LM compounds were synthesized and characterized by NMR spectrum as described (Lee et al., 2012, 2015, 2018). Tet-On ∆K280 TauRD-DsRed 293 and SH-SY5Y cells (Chang et al., 2016) were cultured in Dulbecco’s modified Eagles medium (DMEM) (293) or DMEM-F12 (SH-SY5Y) containing 10% fetal bovine serum (Invitrogen, Carlsbad, CA, USA), 5 μg/ml of blasticidin, and 100 μg/ml of hygromycin (InvivoGen, San Diego, CA, USA). Compound cytotoxicity was assessed by colorimetric assay for measuring cell metabolic activity. Briefly, 5 × 10^4 cells were plated (48-well plates), grown for 20 h, and treated with the test compounds ([…]). […], 20 µl of 3-(4,5-dimethylthiazol-2-yl)-2,5-diphenyltetrazolium bromide (MTT, 5 mg/ml in PBS; Sigma-Aldrich) was added to the cells and incubated at 37°C for 3 h. Then 200 µl of lysis buffer (10% Triton X-100, 0.1 N HCl, 18% isopropanol) was added and the absorbance of the insoluble product at OD 570 nm was measured by a microplate reader (FLx800 fluorescence microplate reader, Bio-Tek, Winooski, VT, USA). The half-maximal inhibitory concentration (IC50) was calculated using the interpolation method.
(§3) Figure S1. Test compounds. (a) Solubility (in cell culture medium) of test compounds. (b) Molecular weight (MW), hydrogen bond donor (HBD), hydrogen bond acceptor (HBA), calculated octanol-water partition coefficient (cLogP), polar surface area (PSA), and predicted blood-brain barrier (BBB) score of test compounds. (c) Cytotoxicity of test compounds against ∆K280 TauRD-DsRed 293 and SH-SY5Y cells using the MTT assay. Uninduced 293 cells were plated on day 1 and treated with 0.1–10 μM test compounds on day 2. Cell viability was measured on day 5 (n = 3). In addition, uninduced SH-SY5Y cells were seeded with all trans retinoic acid (RA; 10 µM) on day 1 and treated with 0.1–10 μM test compounds on day 2. Cell viability was measured on day 9 (n = 3). To normalize, the relative viability in compound untreated cells was set at 100%. IC50 values are listed.

[2] = MTT cytotoxicity in uninduced retinoic acid‐differentiated SH‐SY5Y cells; type: cell-based; conditions: human
Procedure: as §1, §2, §3

[3] = Cytotoxicity by survived cell number in 293 cells expressing ∆K280 TauRD‐DsRed; type: cell-based; conditions: human; 293 cells expressing ∆K280 TauRD‐DsRed for 3 days
From the text: In ∆K280 TauRD‐DsRed 293 cells, a proaggregant (ΔK280) Tau repeat domain (TauRD) containing residues 244–372 of the full‐length 4R2N Tau441 was fused in‐frame with DsRed fluorophore. Compared to the wild‐type TauRD, the poorly folded ΔK280 TauRD formed aggregates, which adversely affected the folding of fused DsRed and thus decreased DsRed fluorescence, as also evidenced by increase in thioflavin S fluorescence emission (Chang et al., 2017). Thioflavin S is a reporter dye for studies of Tau toxicity and pharmacologic prevention in cell model of tauopathy (Pickhardt et al., 2017). It binds to amyloid fibrils but not monomers and gives a distinct increase in fluorescence emission. Inhibition of Tau aggregation may improve DsRed misfolding, leading to increased fluorescence in ΔK280 TauRD‐DsRed‐expressing cells. Utilizing the established Tet‐on ΔK280 TauRD‐DsRed 293 cells (Chang et al., 2016), licochalcone A and LM compounds were tested for effects of reducing Tau misfolding and anti‐oxidation (Figure S2a). Congo red was included for comparison. […] In the following experiments, DsRed fluorescence was measured in wells containing at least 80% viable cells. […] Due to the features of their effectiveness and less cytotoxicity, licochalcone A (1 μM) and LM‐031 (1 μM) were chosen as the candidate compounds for the following experiments. […] Representative DsRed and thioflavin S fluorescent images of ∆K280 TauRD‐DsRed‐expressing cells untreated or treated with congo red (10 µM), licochalcone A (1 µM), or LM‐031 (1 µM) are shown in Figure S2d.
DsRed fluorescence of proaggregant ∆K280 TauRD-DsRed 293 cells was evaluated to reflect Tau aggregation. On day 1, cells were seeded on a 96-well plate in a density of 0.8 × 10^4 cells/well. […] On the fifth day, the cells were stained with Hoechst 33342 (0.1 µg/ml; Sigma-Aldrich) for 30 min to identify total cell number; DsRed fluorescence images (543 nm excitation and 593 nm emission) were automatically captured by using the ImageXpressMICRO high-content imaging system (Molecular Devices, Sunnyvale, CA, USA) and analyzed using MetaXpress image acquisition and analysis software (Molecular Devices). In addition, the cells were fixed with paraformaldehyde (4% in PBS) for 15 minutes, permeabilized with methanol (80%) for 6 minutes at -20°C, incubated with thioflavin S (0.02%; Sigma-Aldrich) and 4’,6-diamidino-2-phenylindole (DAPI) (0.1 μg/ml; Sigma-Aldrich) for 5 minutes, and washed in ethanol (50%). Thioflavin S images ([…]) were captured and analyzed as described. In general, 2 × 10^4 cells in each biological replicate were analyzed.
Figure S2. ΔK280 TauRD-DsRed 293 cells. (a) Experimental flow chart. Cells were plated on day 1. On day 2, the cells were treated with congo red or test compounds for 8 h; addition of doxycycline (Dox; 1 µg/ml) followed. DsRed/thioﬂavin S fluorescence, ROS, and caspase 3 activity were assessed on day 5. (b) Cytotoxicity of the test compounds against 293 cells expressing ∆K280 TauRD-DsRed for 3 days using the survived cell number (n = 3). IC50 values are listed. (c) Dose response curves of LM-031 based on DsRed fluorescence measurement. (d) Fluorescent images of ΔK280 TauRD-DsRed 293 cells untreated or treated with congo red (10 µM), licochalcone A (1 µM), or LM-031 (1 µM). Nuclei were counterstained with Hoechst 33342 (blue), and merged DsRed and Hoechst 33342 signals were shown. In addition, tau aggregation was monitored by staining with thioﬂavin S (green).

| Molecule | transport across PAMPA membrane (integrity marker) | IC50 at 3 days [1] | IC50 at 7 days [2] | IC50 at 3 days [3] |
| --- | --- | --- | --- | --- |
| Lucifer yellow | undetectable |  |  |  |
| Cc1ccc(/C=C/C(=O)c2c(O)c3ccccc3oc2=O)cc1 [LM‐016] |  | 9.3 µM | 6 µM | 9.4 µM |
| COc1cccc(/C=C/C(=O)c2ccc(O)cc2)c1O [LM‐026] |  | 7.7 µM | 5.4 µM | 8.5 µM |
| COc1ccc(O)c(/C=C/C(=O)c2ccccc2)c1 [LM‐006] |  | 6.4 µM | 4.7 µM | 5.3 µM |
